Laboratory results published in ChEMBL document CHEMBL2203074 (Bioorg Med Chem Lett, 2012).
Activity calls are given as the source filed them. The rule behind the calls is not given here.

What was measured:
[1] = Inhibition of amyloid beta (1-42) aggregation at 20 uM after 48 hrs by thioflavin T fluorescence method relative to control
[2] = Antioxidant activity assessed as trolox equivalent of AAPH-induced radical scavenging activity incubated for 10 mins prior to APPH challenge measured every minute for 120 mins by ORAC assay; format: functional
[3] = test system: SH-SY5Y; test: Cytotoxicity against human SH-SY5Y cells assessed as cell viability at 12.5 to 25 uM after 48 hrs by MTT assay; format: cell-based
[4] = test system: SH-SY5Y; test: Neuroprotective activity in human SH-SY5Y cells assessed as decrease in tertiary butylhydroperoxide-induced radical formation incubated for 24 hrs prior to tertiary butylhydroperoxide challenge measured after 30 mins by DCFH-DA staining-based fluorescence assay; format: functional, cell-based
[5] = test system: SH-SY5Y; test: Cytotoxicity against human SH-SY5Y cells assessed as cell viability at 25 uM after 48 hrs by MTT assay; format: cell-based
[6] = Inhibition of amyloid beta (1-42) aggregation at 20 uM after 24 hrs by transmission electron microscopy
[7] = test system: SH-SY5Y; test: Neuroprotective activity in human SH-SY5Y cells assessed as decrease in tertiary butylhydroperoxide-induced radical formation at 10 uM incubated for 24 hrs prior to tertiary butylhydroperoxide challenge measured after 30 mins by DCFH-DA staining-based fluorescence assay; format: functional; set-up: scale not given: the % may be the effect or the level left
[8] = test system: SH-SY5Y; test: Cytotoxicity against human SH-SY5Y cells assessed as cell viability at 60 uM after 48 hrs by MTT assay; format: cell-based

| inhibition [1] [%] | Structure (SMILES) | Activity [2] [equiv] | also measured |
| --- | --- | --- | --- |
| 43.6 | CC(C)(C)c1ccc(/C=C/c2cc(O)cc(O)c2)cc1 | 1.28 |  |
| 13.6 | Oc1cc(O)cc(/C=C/c2ccncc2)c1 | 1.71 |  |
| 65.2 | CN(C)c1ccc(/C=C/c2cc(O)cc(O)c2)cc1 | 4.7 | Activity [3]: Non-toxic |
| 65.5 | Oc1cc(O)cc(/C=C/c2ccc(NC3CCCCC3)cc2)c1 | 2.25 |  |
| 48.5 | CN(C)c1ccc(CCc2cc(O)cc(O)c2)cc1 | 5.21 |  |
| 68.6 | CCNc1ccc(/C=C/c2cc(O)cc(O)c2)cc1 | 5.19 | Activity [4]: Dose-dependent effect; Activity [5]: Toxic |
| 63.7 | CNc1ccc(/C=C/c2cc(O)cc(O)c2)cc1 | 5.54 | Activity [4]: Dose-dependent effect; Activity [3]: Non-toxic |
| 61.5 | CN(C)c1cccc(/C=C/c2cc(O)cc(O)c2)c1 | 3.93 |  |
| 66.7 | CCCNc1ccc(/C=C/c2cc(O)cc(O)c2)cc1 | 4.33 |  |
| 7.02 | COc1cc(/C=C/c2ccc(N(C)C)cc2)cc(OC)c1 | 3.46 |  |
| 71.7 | CC(C)Nc1ccc(/C=C/c2cc(O)cc(O)c2)cc1 | 4.12 | inhibition [6]: Active; Activity [4]: Dose-dependent effect; Activity [3]: Non-toxic; Activity [7]: 37% |
| 69 | CCCN(CCC)c1ccc(/C=C/c2cc(O)cc(O)c2)cc1 | 2.37 |  |
| 69.7 | Oc1ccc(/C=C/c2cc(O)cc(O)c2)cc1 [RESVERATROL] |  | inhibition [6]: Active; Activity [8]: Toxic; Activity [4]: Dose-dependent effect |
| 25.2 | Oc1cc(O)cc(/C=C/c2ccc(Br)cc2)c1 | 2.33 |  |
| 68.7 | Oc1cc(O)cc(/C=C/c2ccc(NC3CCCC3)cc2)c1 | 3.37 |  |
| 59.4 | CN(C)c1ccccc1/C=C/c1cc(O)cc(O)c1 | 2.05 |  |
| 64.8 | CCN(CC)c1ccc(/C=C/c2cc(O)cc(O)c2)cc1 | 3.31 |  |
